{"source": "paper PMC11503492", "about": "“Activity-Based DNA-Encoded Library Screening for Selective Inhibitors of Eukaryotic Translation” (ACS Central Science, 2024)", "key": {"GFP reporter translation": {"test_system": "GFP reporter translation", "assay": "WG IVTT activity assay, GFP reporter control", "type": "biochemical, wheat germ", "conditions": "negative control", "from_the_text": "A commercially available wheat germ lysate (WG) IVTT system was employed to assay translation inhibition. Translation activity was detected via a GFP reporter, and the assay was miniaturized to picoliter-scale microfluidic droplets (Figure 1A,B). […] PCSK9 and RPL27 were truncated to the first 33 and 32 amino acids, respectively (PCSK9[1:33] and RPL27[1:32]). The sequences contain distinct PF846 stall sites and were both fused to a GFP reporter. The GFP reporter and a frameshift mutant of PCSK9[1:33] (PCSK9-FS[1:33]), which mutates the nascent chain sequence while maintaining a nearly identical mRNA sequence, were included as negative controls.[13] […] Sequence sensitivity was further confirmed by an N-terminal deletion series of PCSK9[1:33]-GFP; deletion of N-terminal residues increasingly ablated PCSK9[1:33]-GFP translation sensitivity to PF846 (Figure 1D). The WG IVTT assay was miniaturized using a previously described microfluidic circuit modified for longer incubation times (Figure S1)[27] using PF846 as a positive control compound, and assay statistical quality was calculated (Z′=0.7) (Figure 1E). […] Assay statistical quality using PC-HygB positive control beads was similarly calculated (Z′ = 0.75, Figure 1H). […]\n(§1) 440 progress was immediately monitored (λex = 480 nm, λem = 530 nm, 27 °C, 2 h). […]\n(§2) 441 tive activity was calculated using the slope of fluorescence increase over time (at 15–30 […]"}, "[1]": {"test_system": "PCSK9[1:33]-GFP N-terminal deletions", "assay": "WG IVTT end point assay of PCSK9[1:33]-GFP N-terminal deletions", "type": "biochemical, wheat germ", "conditions": "deletion of 15 or more N-terminal residues, 100 μM PF846", "protocol": "(C) PF846 dose–response IVTT activity assays of PCSK9[1:33]-GFP, PCSK9-FS[1:33]-GFP, RPL27[1:32]-GFP, and the GFP reporters and (D) end point assays (100 μM PF846) of PCSK9[1:33]-GFP N-terminal deletions were conducted to determine sensitivity to PF846 in WG IVTT (% activity relative to DMSO control)."}, "[2]": {"test_system": "MST1[1:39]-GFP translation", "set-up": "method as in PMID 28323820", "conditions": "cited from earlier work"}, "[3]": {"test_system": "RPL27[1:32]-GFP translation", "assay": "WG IVTT activity assay, RPL27[1:32]-GFP template", "type": "biochemical, wheat germ", "from_the_text": "A commercially available wheat germ lysate (WG) IVTT system was employed to assay translation inhibition. Translation activity was detected via a GFP reporter, and the assay was miniaturized to picoliter-scale microfluidic droplets (Figure 1A,B). […] PCSK9 and RPL27 were truncated to the first 33 and 32 amino acids, respectively (PCSK9[1:33] and RPL27[1:32]). The sequences contain distinct PF846 stall sites and were both fused to a GFP reporter. The GFP reporter and a frameshift mutant of PCSK9[1:33] (PCSK9-FS[1:33]), which mutates the nascent chain sequence while maintaining a nearly identical mRNA sequence, were included as negative controls.[13] […] The WG IVTT assay was miniaturized using a previously described microfluidic circuit modified for longer incubation times (Figure S1)[27] using PF846 as a positive control compound, and assay statistical quality was calculated (Z′=0.7) (Figure 1E). […] Assay statistical quality using PC-HygB positive control beads was similarly calculated (Z′ = 0.75, Figure 1H). […]\n429 of encoding region identifiers was then determined using a UMI aggregation algorithm; […]\n433 manually determined threshold (10) were discarded. […]\nas §1, §2\nFigure S11. […] Compound 8 (black) and PF846 (gray) were analyzed […]"}, "[4]": {"test_system": "PCSK9-FS[1:33]-GFP translation", "assay": "WG IVTT microplate activity assay, PCSK9-FS[1:33]-GFP frameshift counter template", "type": "biochemical, wheat germ", "from_the_text": "(§3) A commercially available wheat germ lysate (WG) IVTT system was employed to assay translation inhibition. Translation activity was detected via a GFP reporter, and the assay was miniaturized to picoliter-scale microfluidic droplets (Figure 1A,B). […] PCSK9 and RPL27 were truncated to the first 33 and 32 amino acids, respectively (PCSK9[1:33] and RPL27[1:32]). The sequences contain distinct PF846 stall sites and were both fused to a GFP reporter. The GFP reporter and a frameshift mutant of PCSK9[1:33] (PCSK9-FS[1:33]), which mutates the nascent chain sequence while maintaining a nearly identical mRNA sequence, were included as negative controls.[13] […] Sequence sensitivity was further confirmed by an N-terminal deletion series of PCSK9[1:33]-GFP; deletion of N-terminal residues increasingly ablated PCSK9[1:33]-GFP translation sensitivity to PF846 (Figure 1D). The WG IVTT assay was miniaturized using a previously described microfluidic circuit modified for longer incubation times (Figure S1)[27] using PF846 as a positive control compound, and assay statistical quality was calculated (Z′=0.7) (Figure 1E). To confirm detection of translation inhibition from library beads, hygromycin B, a nonselective aminoglycoside translation inhibitor, was coupled to beads displaying a photocleavable linker (PC-HygB). UV irradiation releases hygromycin from the bead, allowing it to interact with the WG IVTT assay in the droplet. PC-HygB bead photocleavage supernatant inhibited PCSK9[1:33]-GFP translation both in a microplate assay and in microfluidic droplets (Figure 1F,G, S2). Assay statistical quality using PC-HygB positive control beads was similarly calculated (Z′ = 0.75, Figure 1H). […]\n(§4) 436 Microplate IVTT Assays\n(§5) 437 Wheat germ lysate IVTT plate assays were prepared as 5 µL reactions. Wheat germ lysate\n(§6) 438 (3 µL) was added to test compound or vehicle control (1 µL) in a 384-well black microplate\n(§7) 439 and the reaction was incubated (10 min, RT). Template (1 µL) was added and reaction\n(§8) 440 progress was immediately monitored (λex = 480 nm, λem = 530 nm, 27 °C, 2 h). Rela-\n(§9) 441 tive activity was calculated using the slope of fluorescence increase over time (at 15–30\n(§10) 442 min post reaction initiation) for compound samples relative to that of the DMSO vehicle\n443 control. All microplate experiments contained 25 ng/µL plasmid, except for assays with\n445 respectively. HeLa lysate IVTT plate assays were prepared as 5.5 µL reactions. […]"}, "[5]": {"test_system": "PCSK9[1:33]-GFP translation", "assay": "Wheat germ lysate (WG) IVTT microplate activity assay, PCSK9[1:33]-GFP template", "type": "biochemical", "conditions": "WG IVTT", "from_the_text": "as §3, §4, §5, §6, §7, §8, §9, §10\n443 control. […]"}, "[6]": {"test_system": "PCSK9 expression in HepG2 cells", "assay": "HepG2 cellular assay, PCSK9 Western blot", "type": "cell-based", "conditions": "16 h treatment, 5 or 50 µM, triplicate, normalized to DMSO", "description": "Reaction buffer (1 µL) and template (0.5 µL) were added and reaction progress was\nRelative activity was cal-\n450 culated using the slope of fluorescence increase over time (15–30 min post reaction initia-\nGene blocks were purchased from IDT\nDigestion with Sgf I and PmeI allowed for\nSequence-verified plasmids\n460 were cloned into DH5α E. coli for standard large-scale DNA plasmid preparation.\nGene blocks were purchased\nDigestion with NdeI and XhoI\n470 (4.5 g/L high-glucose DMEM, 2 mM L-glutamine, 10% fetal bovine serum, 1% penicillin-\nCells were lysed (100 µL RIPA buffer,\nProtein lysates (24 µg) were separated by denaturing polyacrylamide\n480 PCSK9 rabbit monoclonal antibody, 5% BSA in PBS-T). The PCSK9 probed membrane\nHRP-labeled bands were visualized\nFigure S12. […] PCSK9 expression in HepG2 cells\ntreated 16 h with PF846 or screening hit 8 (5 or 50 µM) or vehicle control (DMSO) was analyzed in triplicate\n(also on this page, place not known: S12894 GAPDH pro m DMSO 5 μM DMSO μM 5 μM 50 μM PCSK9 PF846 hit8 50)\n(1 picture or pasted object on this page, not shown here)"}}}
{"smiles": "O=C(c1ccc(-n2nnc3cccnc32)cc1)N(c1ncccc1Cl)[C@@H]1CCCNC1", "note": "[PF846, PF-06446846, reference compound]", "values": [{"measurement": "activity on GFP reporter control translation (in words)", "setting": "GFP reporter translation", "value": "did not affect the translation"}, {"measurement": "PF846 activity on N-terminal deletions of PCSK9[1:33]-GFP (in words)", "setting": "[1]", "value": "completely eliminates PF846 activity"}, {"measurement": "relative potency on MST1[1:39]-GFP versus PCSK9[1:33]-GFP and RPL27[1:32]-GFP translation (in words)", "setting": "[2]", "value": "more potently inhibits"}, {"measurement": "activity on RPL27[1:32]-GFP translation (in words)", "setting": "[3]", "value": "inhibited the translation"}, {"measurement": "IC50", "setting": "[4]; PCSK9-FS[1:33]-GFP template, triplicate, undetectable IC50 marked >300", "value": "> 300", "unit": "µM"}, {"measurement": "activity on PCSK9-FS[1:33]-GFP translation (in words)", "setting": "[4]; frameshift control", "value": "did not affect the translation"}, {"measurement": "inhibition of PCSK9[1:33]-GFP translation (in words)", "setting": "[5]", "value": "inhibited the translation"}, {"measurement": "IC50", "setting": "[5]; PCSK9[1:33]-GFP template, triplicate, ± standard deviation of the mean", "value": "3.9 ± 0.8", "unit": "µM"}, {"measurement": "PCSK9 protein levels in HepG2 cells (in words)", "setting": "[6]", "value": "significantly reduced"}]}
